Several values for one entry are separate records, joined by “and”; a condition that tells them apart may be missing. Equal entries are not always repeated. Structures can show the parent of a compound that is named as a salt.
Tested on: Ascaris suum antigen-induced wheal
Test: Ascaris suum antigen-induced intradermal wheal formation in nonhuman primates
Assay type: in vivo, Macaca fascicularis
Details: for Mean wheal area: mean of 12 animals, 15 minutes, A suum alone 119.626; for Individual calculated wheal area: single animals, intradermal, 15 minutes after injection
From the text: The species used for this study were male, nonhuman primates, Macaca fascicularis 5 to 10 years of age. Each animal was identified by a unique number tattoo located on its chest. The group size was 12. Animals were supplied by Charles River and housed under conditions outlined in the NIH Guide for Care and Use of Laboratory Animals in compliance with the USDA Laboratory Animal Welfare Act, in a fully accredited AAALAC facility. Purina (product 5038) primate chow was fed twice daily, supplemented with fruit, vegetables and treats. Water was available ad libitum.
Compound A formulated in a solution containing 0.22 mg/ml A sum (Ascaris sum) in phosphate buffered saline was dosed at 0.004, 0.0004, 0.00004, and 0.000004 mg per injection site at a volume of 40 μl.
Diphenhydramine hydrochloride was formulated in a solution containing 0.22 mg/ml A suum in phosphate buffered saline. Diphenhydramine hydrochloride was dosed at 0.4 mg per injection site at a volume of 40 μl.
Ascaris suum extract (part number XPB33X1A5, lot 30575) was supplied by Greer Laboratories. The extract was reconstituted with distilled water to a final concentration of 10 mg/ml of stock solution.
Animals were anesthetized by an intramuscular (IM) injection of 5 to 10 mg/kg ketamine mixed with 0.5 to 0.75 mg/kg medetomidine. The animal's chest and abdomen were shaved and wiped clean with alcohol. The following injections (40 μl each) were given intradermally: • PBS (phosphate buffered saline) • Ascaris 8.8×10^−3 mg/ml • Ascaris 8.8×10^−3 mg/ml+0.4 mg Diphenhydramine hydrochloride • Ascaris 8.8×10^−3 mg/ml+0.004 mg SAR160719 • Ascaris 8.8×10^−3 mg/ml+0.0004 mg SAR160719 • Ascaris 8.8×10^−3 mg/ml+0.00004 mg SAR160719 • Ascaris 8.8×10^−3 mg/ml+0.000004 mg SAR160719
The reactions in the form of a wheal were measured 15 minutes after injection using vernier calipers. The wheal was measured along two diameters (D1 and D2) perpendicular to one another. The area of the wheal was calculated using the formula: […]
Mixed model with repeated measures was used to analyze the data, with wheal size for different treatment groups as the repeated measures, treatment as fixed effects, and animal as random effect. The correlation structure was selected to be compound symmetry. Robust covariance estimate was used to obtain the results.

Row | Structure (SMILES) | Mean wheal area (A suum + 0.4 mg per site, hydrochloride) | Individual calculated wheal area (A suum 8.8 × 10^−3 mg + 0.4 mg per injection site, hydrochloride) | Antigen-induced wheal formation (co-injected with A suum intradermally, measured 15 minutes after injection) | Mean wheal area (A suum + 0.000004 mg per site) | Mean wheal area (A suum + 0.00004 mg per site) | Mean wheal area (A suum + 0.0004 mg per site) | Mean wheal area (A suum + 0.004 mg per site) | Individual calculated wheal area (A suum 8.8 × 10^−3 mg + 0.000004 mg per injection site) | Individual calculated wheal area (A suum 8.8 × 10^−3 mg + 0.00004 mg per injection site) | Individual calculated wheal area (A suum 8.8 × 10^−3 mg + 0.0004 mg per injection site) | Individual calculated wheal area (A suum 8.8 × 10^−3 mg + 0.004 mg per injection site)
1 | CN(C)CCOC(c1ccccc1)c1ccccc1 [Diphenhydramine hydrochloride, reference compound] | 84.196±7.364 mm^2 and 84.196 mm^2 | 76.211 mm^2 and 116.914 mm^2 and 147.430 mm^2 and 62.219 mm^2 and 73.148 mm^2 and 82.527 mm^2 and 58.773 mm^2 and 67.209 mm^2 and 78.550 mm^2 and 65.764 mm^2 and 87.428 mm^2 and 94.183 mm^2 | – | – | – | – | – | – | – | – | –
2 | COCCn1cc(C(=O)N2CCC(c3cc(CN)ccc3F)CC2)c2c(OC(F)(F)F)ccc(F)c21 [Compound A, [4-(5-Aminomethyl-2-fluorophenyl)piperidine-1-yl][7-fluoro-1-(2-methoxyethyl)-4-trifluoromethoxy-1H-indol-3-yl]methanone] | – | – | reduced antigen-induced wheal formation | 105.510 mm^2 | 101.157 mm^2 | 97.680±8.012 mm^2 and 97.680 mm^2 | 102.390±9.645 mm^2 and 102.390 mm^2 | 110.302 mm^2 and 84.145 mm^2 and 132.750 mm^2 and 121.754 mm^2 and 86.601 mm^2 and 104.788 mm^2 and 134.800 mm^2 and 133.773 mm^2 and 85.779 mm^2 and 66.485 mm^2 and 115.005 mm^2 and 89.932 mm^2 | 67.209 mm^2 and 86.601 mm^2 and 168.586 mm^2 and 90.774 mm^2 (2×) and 106.610 mm^2 (2×) and 81.723 mm^2 and 107.527 mm^2 and 93.325 mm^2 and 79.337 mm^2 and 134.800 mm^2 | 112.171 mm^2 and 110.302 mm^2 and 158.388 mm^2 and 101.190 mm^2 and 103.882 mm^2 and 107.527 mm^2 and 87.428 mm^2 and 90.774 mm^2 and 100.300 mm^2 and 48.404 mm^2 and 56.752 mm^2 and 95.046 mm^2 | 67.938 mm^2 and 115.005 mm^2 and 159.506 mm^2 and 91.621 mm^2 and 84.960 mm^2 (2×) and 131.730 mm^2 and 88.259 mm^2 and 164.014 mm^2 and 99.415 mm^2 and 65.047 mm^2 and 76.211 mm^2

Reference: patent publication US20120309790A1, “TREATMENT OF DERM[…] CONDITIONS” (SANOFI, priority 2010, published 2012)
